Measurements published in patent US20070179810A1, “Controls for antimicrobial use and infection” (priority 2006, published 2007).

Assays:
Klebsiella pneumoniae = assay: Susceptibility of hospital Klebsiella pneumoniae isolates (annual antibiogram); assay type: cell-based; settings: for Percent Susceptible in 2000 / Percent Susceptible in 2002 / Percent Susceptible in 2003: K. pneumoniae isolates; for Percent Susceptible in 2000: 2000, year prior to program; for Percent Susceptible in 2002 / Percent Susceptible in 2003: * = statistically significant change compared to 2000; for Change in susceptibility of Klebsiella pneumoniae: 218 isolates, 2000 vs 2002 and 2003, T test
Excerpt: (§1) The Microbiology Department collected data on the susceptibility of major pathogens and published an annual antibiograrn, a copy of which was placed in each hospital chart as well as sent to all physicians. […] T tests were used in determining statistical significance between the years.

non-urinary E. coli = assay: Susceptibility of non-urinary E. coli isolates (annual antibiogram); assay type: cell-based; settings: 548 isolates
Excerpt: as §1

[1] = tested on: non-urinary Pseuclomonas aeruginosa; assay: Susceptibility of non-urinary Pseudomonas aeruginosa isolates (annual antibiogram); assay type: cell-based; settings: 338 isolates; 2000 vs 2002 and 2003
Excerpt: as §1

Proteus mirahilis = assay: Susceptibility of Proteus mirabilis isolates (annual antibiogram); assay type: cell-based; settings: 133 isolates; 2000 vs 2002 and 2003
Excerpt: as §1

Serratia marcescens = assay: Susceptibility of Serratia marcescens isolates (annual antibiogram); assay type: cell-based; settings: 109 isolates; 2000 vs 2002 and 2003
Excerpt: as §1

Pseudomonas aeruginosa = tested on: Pseudomonas aeruginosa
Excerpt: as §1

urinary E. coli = assay: Susceptibility of urinary E. coli isolates (annual antibiogram); assay type: cell-based; settings: 1615 isolates
Excerpt: as §1

Enterobucter cloucue = assay: Susceptibility of Enterobacter cloacae isolates (annual antibiogram); assay type: cell-based; settings: 134 isolates; 2000 vs 2002 and 2003
Excerpt: as §1

[2] = 2000, last year before the study

Compound | Percent Susceptible in 2000 (Klebsiella pneumoniae) | Percent Susceptible in 2002 (Klebsiella pneumoniae) | Percent Susceptible in 2003 (Klebsiella pneumoniae) | Change in susceptibility of Klebsiella pneumoniae (Klebsiella pneumoniae) | other results
C[C@H]1COc2c(N3CCN(C)CC3)c(F)cc3c(=O)c(C(=O)O)cn1c23 [Levofloxacin] | 82% | 99* Percent | 96* Percent |  | 
Gentamicin | 83% | 99* Percent | 96% | statistically significant increase in susceptibility | 
NC[C@H]1O[C@H](O[C@H]2[C@H](O)[C@@H](O[C@H]3O[C@H](CO)[C@@H](O)[C@H](N)[C@H]3O)[C@H](N)C[C@@H]2N)[C@H](N)C[C@@H]1O [Tobramycin] | 90% | 99* Percent | 96% | statistically significant increase in susceptibility | 
CO/N=C(\C(=O)N[C@@H]1C(=O)N2C(C(=O)[O-])=C(C[N+]3(C)CCCC3)CS[C@H]12)c1csc(N)n1 [Cefepime] | 94% | 98% | 98% | did not reach statistical significance | Susceptibility of non-urinary E. coli, before (non-urinary E. coli; [2]): 100%; Susceptibility of non-urinary E. coli, after (non-urinary E. coli; during the study (2002 and 2003), significant decrease): 98%; Change in susceptibility of non-urinary Pseudomonas aeruginosa [1]: no statistically significant change; Change in susceptibility of Proteus mirabilis (Proteus mirahilis): no statistically significant change; Change in susceptibility of Serratia marcescens (Serratia marcescens): no statistically significant change
C[C@@H](O)[C@H]1C(=O)N2C(C(=O)O)=C(SCCN=CN)C[C@H]12 [imipenem] |  |  |  |  | Pseudomonas aeruginosa susceptibility in 2000 (Pseudomonas aeruginosa; 2000): 93%; Pseudomonas aeruginosa susceptibility in 2002 (Pseudomonas aeruginosa; 2002, significant decrease): 83%; Pseudomonas aeruginosa susceptibility in 2003 (Pseudomonas aeruginosa; 2003): 91%
CO/N=C(\C(=O)N[C@@H]1C(=O)N2C(C(=O)O)=C(CSc3nc(=O)c(=O)[nH]n3C)CS[C@H]12)c1csc(N)n1 [Ceftriaxone] | 85% | 98* Percent | 96* Percent | statistically significant increase in susceptibility | 
CO/N=C(\C(=O)N[C@@H]1C(=O)N2C(C(=O)O)=C(COC(N)=O)CS[C@H]12)c1ccco1 [Cefuroxime] | 78% | 94* Percent | 93* Percent | statistically significant increase in susceptibility | 
CC(C)(O/N=C(\C(=O)N[C@@H]1C(=O)N2C(C(=O)[O-])=C(C[n+]3ccccc3)CS[C@H]12)c1csc(N)n1)C(=O)O [Ceftazidime] | 85% | 99* Percent | 96* Percent | statistically significant increase in susceptibility | Change in susceptibility of non-urinary E. coli (non-urinary E. coli; 2000 vs 2002 and 2003): not significant; Susceptibility of urinary E. coli, before (urinary E. coli; [2]): 100%; Susceptibility of urinary E. coli, after (urinary E. coli; during the study (2002 and 2003), significant fall): 98%; Change in susceptibility of non-urinary Pseudomonas aeruginosa [1]: no statistically significant change; Change in susceptibility of Enterobacter cloacae (Enterobucter cloucue): no statistically significant change; Change in susceptibility of Proteus mirabilis (Proteus mirahilis): no statistically significant change; Change in susceptibility of Serratia marcescens (Serratia marcescens): no statistically significant change
Trimethoprirn/Sulfa | 86% | 97* Percent | 93% | statistically significant increase in susceptibility | 
